Measured values from patent US11964943B2, “3,5-diarylidenyl-n-substituted-piperid-4-one-derived inhibitors of Stat3 pathway activity and uses thereof” (priority 2017, dated 2024).

Tests used:
A549 cells = assay: SRB growth inhibition and combination index with cisplatin, A549; format: cell-based, human
Method: The affected fractions were calculated from the SRB or MTT assay absorbance values and were registered to derive the respective CI values and isobolograms. A CI value of less than 1 (one) indicates synergy.
(§1) The SRB assay was used to assess cell growth inhibition by IE-8 alone and in combination with cisplatin. […] For combination studies drug treatments were sequential with IE-8 applied first followed by cisplatin for 1 h. […] Absorbance was read at 540 nm and results were normalized to untreated controls. For analysis of GC50 values and statistical significance, non-linear regression analysis with a comparison of fits was performed with the GraphPad Prism 6.0 software.
as §1, with “Drug Combination studies. Sulforhodamine B (SRB) Cell Growth Inhibition Assay. The” for “The”, “8 h” for “IE-8”

DU145 cells = assay: Colony formation assay for radiosensitization; format: cell-based
Method: The X-Ray radiation facility provided an AGO HS MP-1 X-ray machine with a Varian ND1-321 tube used to produce X rays at a dose rate of 1 Gy/min.
Stock cultures were trypsinised and 2.5×10^4 cells were seeded into 6-well plates and incubated at 37° C. for 24-48 hours. When cells reached […] confluency, they were treated with IE-8 (0, 0.8, 1, and 1.2 μM) for 18 hours. After drug treatment, cells were harvested by trypsinisation and re-seeded. […] Plates were then incubated for 14 days at 37° C. with 5% CO2. After this incubation, plates were washed with tap water and fixed. Colonies were stained for 30 minutes at room temperature with 1% (w/v) crystal violet (Sigma-Aldrich) in 10% ethanol, and subsequently dried overnight at room temperature. Colonies consisting of at least 50 cells were counted for each treatment. The number of colonies in unirradiated wells was used to determine the plating efficiency (number of colonies/number of cells seeded). The following formula was used to calculate survival fraction: […]

[1] = tested on: BRCA1, FANCD2, EME1 and MUS81; assay: RT-PCR and immunoblotting of DNA ICL repair factors; format: cell-based; details: DU145 cells, 18 h
Method: Whole cell lysates were prepared by incubation of harvested, trypsinised cells with CelLytic™ lysis buffer (Sigma-Aldrich) supplemented with 1× protease and 1× phosphatase inhibitors (Roche). Protein quantification was carried out using a protein assay kit (Bio-Rad). 40 μg of the lysates were denatured by heating for 5 min at 95° C. in sample buffer containing 100 mM Tris-Cl (pH 6.8), 4% SDS, 10% 2-mercaptoethanol, 20% glycerol, and 0.02% bromophenol blue. Precision Plus Protein Dual colour standards (Bio-Rad) were used as a molecular weight reference. For the detection of STAT3, pSTAT3, α/β tubulin, cleaved PARP, Bcl-2, Bcl-xL, FANCD2, BRCA1, EME1 and MUS81, proteins were separated on a NuPAGE 7% Tris-acetate gel (Life Technologies) and subsequently transferred to polyvinylidene difluoride membranes (Immobilon®-P transfer membrane; Millipore). […]
After drug-treatment cells were harvested by trypsinisation followed by centrifugation. […] TaqMan Gene Expression Assays (Life Technologies) for FANCD2, BRCA1, EME1 and MUS81 were used to quantify changes in gene expression. […] Fold change was calculated using the comparative CT method normalizing to GAPDH expression.
RT-PCR. […] TaqMan Gene Expression Assays (Life Technologies) for FANCD2, BRCA1, EME1 and MUS81 were used to quantify changes in gene expression. […] Fold change was calculated using the comparative CT method normalizing to GAPDH expression.

## COc1cc(/C=C2\CN(c3ccccc3)C/C(=C\c3cc(OC)c(OC)c(OC)c3)C2=O)cc(OC)c1OC [IE-8, 3,5-Di(3,4,5-trimethoxybenzylidene)-1-phenylpiperidin-4-one]
A549 cells; 10 μM IE-8 1 h then cisplatin 1 h
  combination index (CI) with cisplatin: below 1
A549 cells; IE-8 18 h then cisplatin 1 h, fixed ratio 1:50
  combination index (CI) with cisplatin: below 1
DU145 cells; 18 h pretreatment
  colony formation following irradiation: dose-dependent decrease in colony formation
DU145 cells; IE-8 0.8 μM 18 h pretreatment, 0 Gy
  Survival fraction: 1.000
DU145 cells; IE-8 0.8 μM 18 h pretreatment, 2 Gy
  Survival fraction: 0.451
DU145 cells; IE-8 0.8 μM 18 h pretreatment, 4 Gy
  Survival fraction: 0.147
DU145 cells; IE-8 0.8 μM 18 h pretreatment, 6 Gy
  Survival fraction: 0.047
DU145 cells; IE-8 0.8 μM 18 h pretreatment, 8 Gy
  Survival fraction: 0.013
DU145 cells; IE-8 1 μM 18 h pretreatment, 0 Gy
  Survival fraction: 1.000
DU145 cells; IE-8 1 μM 18 h pretreatment, 2 Gy
  Survival fraction: 0.440
DU145 cells; IE-8 1 μM 18 h pretreatment, 4 Gy
  Survival fraction: 0.134
DU145 cells; IE-8 1 μM 18 h pretreatment, 6 Gy
  Survival fraction: 0.026
DU145 cells; IE-8 1 μM 18 h pretreatment, 8 Gy
  Survival fraction: 0.006
DU145 cells; IE-8 1.2 μM 18 h pretreatment, 0 Gy
  Survival fraction: 1.000
DU145 cells; IE-8 1.2 μM 18 h pretreatment, 2 Gy
  Survival fraction: 0.349
DU145 cells; IE-8 1.2 μM 18 h pretreatment, 4 Gy
  Survival fraction: 0.077
DU145 cells; IE-8 1.2 μM 18 h pretreatment, 6 Gy
  Survival fraction: 0.014
DU145 cells; IE-8 1.2 μM 18 h pretreatment, 8 Gy
  Survival fraction: 0.002
[1]
  expression of BRCA1, FANCD2, EME1 and MUS81 (mRNA and protein): markedly downregulated
